According to patent US20030091585A1, “Vaccine composition containing a promoter peptide” (priority 2001, published 2003):

What was measured:
neutrophils = details: stimulated neutrophils; cited from earlier work
human neutrophils = details: cited from earlier work
[1] = test system: monocytes, B-lymphocytes, and neutrophils; details: cited from earlier work
phospholipase C (PLC) = details: in B-lymphocytes; cited from earlier work
[2] = test system: test mice (6-8-week-old athymic nu/nu on a BALB/c background); experiment: Quantity of anti-E2 antibody (ELISA) in blood of mice injected with vaccine; format: in vivo; details: when used together with alum; E2 protein antigen
Protocol: 5 μg of E2 protein antigen obtained in Reference Example was dissolved in 150 μl of PBS (pH 7.2), and 7 μg of the peptide of sequence of SEQ ID NO: 1 synthesized using a conventional peptide synthesis method (Houghten, R. A. et al., Nature, 354, 84(1991)) was added thereto together with alum to obtain a vaccine.
The vaccine thus obtained was injected subcutaneously into test mice (6-8-week-old athymic nu/nu on a BALB/c background). After 5 weeks, a booster injection was carried out, and after another 2 weeks, blood samples were taken from the mice.
For comparison, three different vaccine compositions were also tested as above. These comparative controls were: a vaccine containing E2 protein and alum; a vaccine containing E2 protein and the peptide of sequence of SEQ ID NO: 1; and a vaccine containing alum and the peptide of sequence of SEQ ID NO: 1. The peptides used in this Example include the D-Met residue of SEQ ID NO: 1 having CONH2 substituted for the carboxyl group. […]
Thereafter, 80 μl/well of color former (ABSI (Chemicon®)) were added to each of the 96-wells of the plate, and they were incubated at room temperature for 20 minutes. After the reaction, the O.D. of each well was determined at the wavelength of 405 nm with an ELISA reader.

[3] = test system: specific receptor protein in the cell membrane of the U266 cell line; details: cited from earlier work
[4] = test system: human B-lymphocyte cell line U266; details: cited from earlier work

Trp Lys Tyr Met Val Met [peptide of SEQ ID NO: 1]
production of active oxygen species (neutrophils): increase
chemotaxis (human neutrophils): induces chemotaxis
activation of monocytes, B-lymphocytes, and neutrophils [1]: activates
activity of phospholipase C (PLC) (phospholipase C (PLC)): enhances
effect of promoting the vaccination efficiency [2]: remarkable synergistic effect
binding with receptor, activation of the cellular signal pathway [3]: binding with a specific receptor protein
intracellular calcium [Ca2+]I release [4]: induces
